Assay results from ChEMBL document CHEMBL1156599, “Nordihydroguaiaretic acid autoxidation produces a schisandrin-like dibenzocyclooctadiene lignan” (J Nat Prod, 2008).

Experiment: Stability assessed as half life at pH 7.4
Format: physicochemical
Details: buffer

half-life: 3 h
Compound: CC(Cc1ccc(O)c(O)c1)C(C)Cc1ccc(O)c(O)c1 (stereo unspecified) [NORDIHYDROGUAIARETIC ACID]
